Paper PMC5830399, “Aggregating sequences that occur in many proteins constitute weak spots of bacterial proteostasis” (Nature Communications, 2018)
Converted amounts (≈) assume the structure as drawn. Where two headings read alike, the source gives them in different places. Peptide text beside a SMILES is read from it.

Experiments:
[1] = tested on: E. coli O157; format: cell-based, Escherichia coli; conditions: HPLC-purified peptide
Description: In order to investigate whether APR redundancy does result in proteostatic collapse, we selected resynthesized and high-performance liquid chromatography (HPLC)-purified four positive peptides from the screen, P2, P5, P14, and P105, as well as three negative peptides, P3, P4, and P11, and confirmed their MIC and minimum bactericidal concentration (MBC) values (Table 1). […] These IBs, which are also called large polar aggregates, could be stained with pentameric formyl thiophene acetic acid (pFTAA, Fig. 1j and supplementary Fig. 3), an extensively characterized amyloid-specific dye[20]–[22], which specifically binds to amyloid-like aggregates as well as disease-associated protein IBs[22]. This IB-staining pattern could be observed for all bactericidal peptides, but not for any of the other peptides, although some other pFTAA-positive structures could be discerned (Supplementary Fig. 3). We confirmed the cross-β-structure content of IB using thioflavin-T staining and correlative atomic force microscopy nanoimaging and Fourier transform infrared spectroscopy (Supplementary Note 2 and Supplementary Fig. 4).

[2] = tested on: Swiss mice; test: In vivo toxicity test; design: species or system mouse; conditions: Swiss female mice, 30 mg/kg IP once a day for 18 days (Supplementary Note 8)
Description: The procedures used in the assays were approved by the local Animal Ethics Committee and conform to international standards of animal welfare (Approval P067/2015 of the Ethical Committee of KULeuven). A safe concentration of peptides of […] was used for this experiment.
Briefly, 5–6-week-old Swiss females were divided into […] (six animals per group) and administered 30 mg/kg of P2 (group A) or vehicle (physiological water pH 7.5) (group B) once a day for 18 days via IP injection. During the treatment period, the clinical, physiological, and behavioral parameters, including body weight, food and water consumption, body condition score, home cage activity, and locomotion were constantly monitored and recorded.
Three days after the last administration, animals were anesthetized and blood was collected using a standard retro-orbital puncture from each animal. Next, the mice sacrificed and underwent complete necropsy with gross examination and organ weights. The organs (heart, liver, spleen, kidney, bone marrow, brain, lung) were sampled and immersed in fixative in 4% paraformaldehyde. […] Five-micrometer-thick sections taken from these blocks (Thermo Scientific Microm HM355S microtome) were then stained with hematoxylin and eosin (Leica ST5010 Autostainer XL) and evaluated under a Leica DM 2500 light microscope by a board-certified veterinary pathologist. […]

[3] = tested on: human erythrocytes; test: In vitro hemolytic activity test; format: cell-based; conditions: 1 h 37 °C
Description: The hemolytic activities of peptides were determined by hemolysis against human erythrocytes. Pooled fresh blood was obtained from healthy volunteers (Red Cross Flanders) and erythrocytes were collected by centrifugation 1,000 × g for 5 min (anticoagulated by EDTAK). The pellet was washed three times with phosphate-buffered saline (PBS) and was diluted to a concentration of 8% in PBS. One hundred microliters of 8% red blood cells solution was mixed with 100 µL of serial dilutions of peptides in PBS buffer in 96-well plates (BD Biosciences). The reaction mixtures were incubated for 1 h at 37 °C. Thereupon, the plate was centrifuged for 10 min at 1,000 × g and 100 µL of supernatant was transferred to a sterilized 96-well plate (BD Biosciences, flat bottom). The release of hemoglobin was determined by measuring the absorbance of the supernatant at 405 nm. […] Erythrocytes in 1% Triton and maximum used concentration of vehicle were used as the control of 100 and 0% hemolysis, respectively.

[4] = tested on: E. coli BL21; format: cell-based, Escherichia coli
Description: (§1) If the bactericidal effect of P2 is indeed mediated by a loss of protein homeostasis, the cellular chaperone machinery would be expected to counteract or limit the effect of the peptide. […] To ensure that this effect was not due to the reduced overall viability of the dnaK deletion strain, we also tested the MIC value at 30 °C and obtained the same result (MIC = 6 μg/mL). This confirms that the direct inhibition of chaperones and proteases is not the principal mechanism of action of P2. […] The deletion strains with the strongest effect largely matched those found in the IBs by MS, including those of the cotranslationally acting chaperones TF (tig), dnaK (Hsp70 family), and its cochaperone dnaJ, as well as the small Hsps hchA (Hsp31), hslO (Hsp33), and ipbA (α-crystallin family). The disaggregase clpB and the aggregation-controlling protease lon also had strong effects.
(§2) The MICs of active peptides were determined via the Broth microdilution assay according to the EUCAST guideline, which was performed in 96-well polystyrene flat bottom microtiter plates (BD Biosciences). Briefly, a single colony was inoculated into 5 mL LB medium and grown to the end-exponential growth phase in a shaking incubator at 37 °C. Cultures were subsequently diluted to an OD600 (optical density) of 0.002 ([…]) in fresh LB medium. One hundred microliters of LB medium with different concentration of peptides ranging from 100 to 0.75 µg/mL were serially diluted to the sterile 96-well plate (at least three wells in each plate). Afterwards, 100 µL of the diluted bacteria were pipetted into 96-well plates containing different concentration of peptides. In each plate, the grown bacteria with the maximum concentration of carrier and medium were considered as positive and negative controls, respectively. Thereafter, 96-well plates were statically incubated overnight at 37 °C to allow bacterial growth. OD was measured at 590 nm for 1 s using a multipurpose ultraviolet–visible plate reader, and the absorbance of the growth bacteria was measured using a Perkin Elmer spectrophotometer (1420 Multilabel Counter Victor 3).
Chaperone co-expression plasmids were purchased from Takara set (catalog# 3340), which consists of five different plasmids that contain chaperone plasmids developed by HSP Research Institute Inc. Plasmids were transformed into competent E. coli BL21. The co-expression chaperone strains are chloramphenicol selective of chaperone plasmid (20 μg/mL), and chaperone inducer depending on the chaperone plasmid used. pG-KJE8 (DnaK-dnaJ-grpE araB groES-groEL) induced by L-arabinose (0.5 mg/mL), tetracycline (1–5 ng/mL), pGro7 (groES-groEL) induced by L-arabinose (0.5 mg/mL), pKJE7 (dnaK-dnaJ-grpE) induced by L-arabinose (0.5 mg/mL), pG-Tf2 (groES-groEL-tig) induced by tetracycline (1–5 ng/mL), and pTf16 (tig) induced by L-arabinose (0.5 mg/mL).

[5] = tested on: E. coli O157:H7; format: cell-based, Escherichia coli
Description: as §2

[6] = tested on: E. coli K-12 BW25113; format: cell-based, Escherichia coli
Description: as §1, §2
Knockout chaperon strains were purchased from Dharmacon E. coli Keio knockout collection, which contains a set of single-gene deletion mutants for chaperone E. coli K-12 genes. Each deleted gene has been replaced with a kanamycin (30 μg/ mL) resistance cassette.

## CC(C)C[C@H](NC(=O)CNC(=O)[C@H](CCCNC(=N)N)NC(=O)[C@@H]1CCCN1C(=O)[C@H](CCCNC(=N)N)NC(=O)[C@H](CCCNC(=N)N)NC(=O)[C@@H](NC(=O)[C@H](CC(C)C)NC(=O)[C@H](C)NC(=O)[C@H](CC(C)C)NC(=O)CNC(=O)[C@H](CC(C)C)NC(=O)CNC(=O)[C@@H](N)CCCNC(=N)N)C(C)C)C(=O)NCC(=O)N[C@@H](CC(C)C)C(=O)N[C@@H](C)C(=O)N[C@@H](CC(C)C)C(=O)N[C@H](C(=O)N[C@@H](CCCNC(=N)N)C(=O)N[C@@H](CCCNC(=N)N)C(=O)O)C(C)C [P2] (H-RGLGLALVRRPRGLGLALVRR-OH)
[1]
  MBC: 6 µg/mL (≈ 2.61 µM)
[2]
  tolerability in mice: tolerated P2 treatments well
[3]
  LC50, concentration inducing 50% lysis of human erythrocytes: 1,100 μg/mL
[4]; BL21, plasmid pG-KJE8, overexpressed dnaK-dnaJ-grpE groES-groEL
  MIC: 25 µg/mL (≈ 10.9 µM)
[4]; BL21, plasmid pG-Tf2, overexpressed groES-groEL-tig
  MIC: 25 µg/mL (≈ 10.9 µM)
[4]; BL21, plasmid pGro7, overexpressed groES-groEL
  MIC: 25 µg/mL (≈ 10.9 µM)
[4]; BL21, plasmid pKJE7, overexpressed dnaK-dnaJ-grpE
  MIC: 25 µg/mL (≈ 10.9 µM)
[4]; BL21, plasmid pTf16, overexpressed tig
  MIC: 25 µg/mL (≈ 10.9 µM)
[4]; BL21 wt, no plasmid
  MIC: 25 µg/mL (≈ 10.9 µM)
[5]; E. coli O157(:H7), HPLC-purified peptide, broth microdilution (EUCAST), LB, overnight 37 °C, OD 590 nm
  MIC: 6 µg/mL (≈ 2.61 µM)
[5]; E. coli O157:H7
  IC50, concentration at which bacterial growth is 50% inhibited: 1.5 µg/mL (≈ 0.652 µM)
[6]; KEIO WT
  MIC: 12 µg/mL (≈ 5.22 µM)
[6]; dnaK deletion strain, tested at 30 °C
  MIC: 6 µg/mL (≈ 2.61 µM)
[6]; gene deletion ∆ clpA
  MIC: 12 µg/mL (≈ 5.22 µM)
[6]; gene deletion ∆ clpB
  MIC: 12 µg/mL (≈ 5.22 µM)
[6]; gene deletion ∆ clpP
  MIC: 12 µg/mL (≈ 5.22 µM)
[6]; gene deletion ∆ clpS
  MIC: 12 µg/mL (≈ 5.22 µM)
[6]; gene deletion ∆ clpX
  MIC: 12 µg/mL (≈ 5.22 µM)
[6]; gene deletion ∆ dnaJ
  MIC: 12 µg/mL (≈ 5.22 µM)
[6]; gene deletion ∆ dnaK
  MIC: 6 µg/mL (≈ 2.61 µM)
[6]; gene deletion ∆ groL
  MIC: 12 µg/mL (≈ 5.22 µM)
[6]; gene deletion ∆ hchA
  MIC: 6 µg/mL (≈ 2.61 µM)
[6]; gene deletion ∆ hslO
  MIC: 12 µg/mL (≈ 5.22 µM)
[6]; gene deletion ∆ htpG
  MIC: 12 µg/mL (≈ 5.22 µM)
[6]; gene deletion ∆ ibpA
  MIC: 12 µg/mL (≈ 5.22 µM)
[6]; gene deletion ∆ ibpB
  MIC: 12 µg/mL (≈ 5.22 µM)
[6]; gene deletion ∆ lon
  MIC: 12 µg/mL (≈ 5.22 µM)
[6]; gene deletion ∆ sulA
  MIC: 12 µg/mL (≈ 5.22 µM)
[6]; gene deletion ∆ tig
  MIC: 12 µg/mL (≈ 5.22 µM)
